Measurements taken from ChEMBL document CHEMBL4417628, “Small molecule antagonists of dusp5 and methods of use” (2018).
Residue numbers refer to the chain shown, from its start. The source made the active and inactive calls. The rule behind the calls is not given here.

Experiments:
[1] = system: T1, Dual specificity protein phosphatase 5 (Homo sapiens), Q16690 [C263S]; test: Binding affinity to N-terminal hexa-histidine-tagged and 15N-labeled DUSP5 C263S mutant (unknown origin) expressed in Escherichia coli BL21 (DE3) at 500 uM by 2D 1H-15N HSQC NMR assay
T1 sequence (whole entry): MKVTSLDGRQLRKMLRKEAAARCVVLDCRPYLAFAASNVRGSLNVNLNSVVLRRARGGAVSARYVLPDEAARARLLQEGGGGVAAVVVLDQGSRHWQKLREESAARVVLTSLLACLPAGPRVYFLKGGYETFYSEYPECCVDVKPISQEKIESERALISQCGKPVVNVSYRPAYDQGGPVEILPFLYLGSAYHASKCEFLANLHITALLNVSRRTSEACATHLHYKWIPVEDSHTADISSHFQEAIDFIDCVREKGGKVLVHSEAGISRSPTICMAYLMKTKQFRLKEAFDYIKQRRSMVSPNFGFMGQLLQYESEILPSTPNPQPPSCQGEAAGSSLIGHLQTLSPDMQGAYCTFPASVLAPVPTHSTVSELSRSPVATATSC

[2] = target: T2, Tyrosine-protein phosphatase non-receptor type 1 (Homo sapiens, UniProt P18031); test: Inhibition of PTPN1 (unknown origin) using PNPP substrate incubated for 15 mins relative to control
T2 sequence (P18031 whole entry): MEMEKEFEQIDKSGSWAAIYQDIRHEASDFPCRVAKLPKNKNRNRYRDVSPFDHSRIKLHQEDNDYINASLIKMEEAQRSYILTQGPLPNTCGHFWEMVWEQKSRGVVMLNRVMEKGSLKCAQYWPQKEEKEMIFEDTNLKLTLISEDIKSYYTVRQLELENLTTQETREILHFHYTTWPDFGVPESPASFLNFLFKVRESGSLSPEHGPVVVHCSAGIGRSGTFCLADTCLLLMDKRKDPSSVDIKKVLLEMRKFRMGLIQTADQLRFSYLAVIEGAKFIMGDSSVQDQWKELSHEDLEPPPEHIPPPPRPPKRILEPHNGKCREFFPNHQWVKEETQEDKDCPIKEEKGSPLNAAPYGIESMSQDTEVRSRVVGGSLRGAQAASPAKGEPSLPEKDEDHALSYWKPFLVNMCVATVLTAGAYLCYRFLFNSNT

[3] = target: T3, Dual specificity protein phosphatase 5 (Homo sapiens) (UniProt Q16690); test: Potency index, ratio of IC50 for NTS to IC50 for test compound for inhibition of full length DUSP5 (unknown origin) assessed as reduction in de-phosphorylation of GST-tagged recombinant phosphorylated ERK2 incubated for 15 mins by SDS-PAGE based immunoblot assay
T3 sequence (whole entry): T1 sequence (whole entry) with S263C

Activity [1]: Active
IC50 [2]: Not Active
Ratio IC50 [3]: 1000
SMILES: O=S(=O)([O-])c1cc(O)c2c(S(=O)(=O)[O-])cccc2c1.[Na+].[Na+]
